Results taken from patent publication US11420956B2, “Ureas having Androgen Receptor degradation activity and uses thereof” (ACCUTAR BIOTECHNOLOGY INC., priority 2019, dated 2022).

Molecular target: T1, androgen receptor (AR) (Homo sapiens, UniProt P10275, T878A)
T1 construct: endogenous in cells; host or cells: LNCAP
T1 sequence (P10275 1-920 T878A): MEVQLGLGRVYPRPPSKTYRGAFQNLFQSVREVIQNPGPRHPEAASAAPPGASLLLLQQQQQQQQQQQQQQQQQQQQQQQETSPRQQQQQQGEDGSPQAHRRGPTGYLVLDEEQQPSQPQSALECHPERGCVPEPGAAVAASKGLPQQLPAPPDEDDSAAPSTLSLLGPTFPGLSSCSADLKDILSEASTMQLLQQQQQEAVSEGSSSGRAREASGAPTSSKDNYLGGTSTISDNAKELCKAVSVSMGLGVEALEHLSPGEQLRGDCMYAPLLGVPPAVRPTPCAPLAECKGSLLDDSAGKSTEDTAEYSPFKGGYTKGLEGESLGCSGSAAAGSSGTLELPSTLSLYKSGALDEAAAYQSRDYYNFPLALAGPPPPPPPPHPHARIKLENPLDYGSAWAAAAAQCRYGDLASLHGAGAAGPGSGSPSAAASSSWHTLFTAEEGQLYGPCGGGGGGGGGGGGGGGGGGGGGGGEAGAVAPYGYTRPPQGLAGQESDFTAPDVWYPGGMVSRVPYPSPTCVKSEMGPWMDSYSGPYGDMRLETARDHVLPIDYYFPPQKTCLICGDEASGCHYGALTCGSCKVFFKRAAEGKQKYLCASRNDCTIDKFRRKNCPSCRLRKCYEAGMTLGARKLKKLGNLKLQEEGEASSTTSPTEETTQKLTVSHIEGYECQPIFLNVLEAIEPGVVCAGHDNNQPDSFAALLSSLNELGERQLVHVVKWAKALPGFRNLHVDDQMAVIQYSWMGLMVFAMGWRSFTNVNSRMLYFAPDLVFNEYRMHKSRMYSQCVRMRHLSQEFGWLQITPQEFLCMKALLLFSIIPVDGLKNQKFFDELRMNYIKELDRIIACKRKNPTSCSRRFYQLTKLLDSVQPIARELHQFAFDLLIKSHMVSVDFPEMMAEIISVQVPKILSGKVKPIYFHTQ
Assay: AR degradation in LNCAP cells (Western blot)
Type: cell-based
Settings: 24 hours after administration
Procedure: LNCAP, VCAP and 22Rv1 cells were plated in 24-well plates at 1.5×10E5 cells/well in the RPMI growth medium containing 10% FBS and 1% Penicillin Streptomycin, and then incubated at 37° C. overnight. The following day, the test compound was administered to the cells by using 1000× compound stock solution prepared in DMSO at various concentrations. After administration of the compound, the cells were then incubated at 37° C. for 24 hours. Upon completion, the cells were washed with PBS and protein was collected in Laemmli sample buffer (1×; VWR International). Proteins in cell lysate were separated by SDS-PAGE and transferred to Odyssey nitrocellulose membranes (Licor) with iblot® dry blotting transfer system (ThermoFisher). Nonspecific binding was blocked by incubating membranes with Intercept Blocking Buffer (Licor) for 1 hour at room temperature with gentle shaking. The membranes were then incubated overnight at 4° C. with Primary antibodies rabbit anti-AR (1:1,000, Cell Signaling, 5153) and mouse anti-GAPDH (1:5,000, Santa Cruz Biotechnology, sc-47724) diluted in Intercept Blocking Buffer containing 0.1% Tween 20. After washing 3 times with TBS-T, the membranes were incubated with IRDye® […] goat anti-mouse IgG (1:20,000, Licor) or IRDye® […] goat anti-rabbit IgG (1:20,000, Licor) for 1 hour. After TBS-T washes, membranes were rinsed in TBS and scanned on Odyssey® CLx Imaging System (Licor). The bands were quantified using Image Studio™ Software (Licor).
Tables 5 and 6 summarize the androgen receptor (AR) degradative activity of exemplary compounds in LNCAP, VCAP and 22Rv1 cell lines 24 hours after administration. DC50: compound concentration needed for 50% target protein degradation.

**Q.** Which DC50 does the source give for `C[C@@H]1CN(c2ccc(C#N)c3ncccc23)[C@@H](C)CN1C(=O)Nc1ccc(N2CCC(CN3CCN(c4ccc5c(c4)CN([C@H]4CCC(=O)NC4=O)C5=O)CC3)CC2)c(F)c1` [Compound 2-21, (2R,5S)-4-(8-cyanoquinolin-5-yl)-N-(4-(4-((4-(2-((S)-2,6-dioxopiperidin-3-yl)-1-oxoisoindolin-5-yl)piperazin-1-yl)methyl)piperidin-1-yl)-3-fluorophenyl)-2,5-dimethylpiperazine-1-carboxamide] here?
**A.** > 100 nM

**Q.** How did the DC50 turn out when `C[C@H]1CN(C(=O)Nc2ccc(N3CCC(CN4CCN(c5ccc6c(c5)C(=O)N(C5CCC(=O)NC5=O)C6=O)CC4)CC3)nc2)CCN1c1ccc(C#N)c2ncccc12` (stereo partly drawn) [Compound 2-15, (3S)-4-(8-cyanoquinolin-5-yl)-N-(6-(4-((4-(2-(2,6-dioxopiperidin-3-yl)-1,3-dioxoisoindolin-5-yl)piperazin-1-yl)methyl)piperidin-1-yl)pyridin-3-yl)-3-methylpiperazine-1-carboxamide] was run?
**A.** > 100 nM

**Q.** For `C[C@@H]1CN(c2ccc(C#N)c(Cl)c2)[C@@H](C)CN1C(=O)Nc1cnc(N2CCC(CN3CCN(c4cc5c(cc4F)C(=O)N(C4CCC(=O)NC4=O)C5=O)CC3)CC2)nc1` (stereo partly drawn) [Compound 1-41, (2R,5S)-4-(3-chloro-4-cyanophenyl)-N-(2-(4-((4-(2-(2,6-dioxopiperidin-3-yl)-6-fluoro-1,3-dioxoisoindolin-5-yl)piperazin-1-yl)methyl)piperidin-1-yl)pyrimidin-5-yl)-2,5-dimethylpiperazine-1-carboxamide], which DC50 is on record?
**A.** ≤ 10 nM

**Q.** `CC(C)N(CC1CCN(c2ccc(NC(=O)N3C[C@H](C)N(c4ccc(C#N)c(Cl)c4)C[C@H]3C)cn2)CC1)C1CC(Oc2ccc3c(c2)C(=O)N(C2CCC(=O)NC2=O)C3=O)C1` (stereo partly drawn) [Compound 1-12, (2R,5S)-4-(3-chloro-4-cyanophenyl)-N-(6-(4-((((1s,3s)-3-((2-(2,6-dioxopiperidin-3-yl)-1,3-dioxoisoindolin-5-yl)oxy)cyclobutyl)(isopropyl)amino)methyl)piperidin-1-yl)pyridin-3-yl)-2,5-dimethylpiperazine-1-carboxamide] was tested. Which DC50 did it give?
**A.** 10 to 100 nM

**Q.** Which DC50 does the source give for `C[C@@H]1CN(c2ccc(C#N)c3ncccc23)[C@@H](C)CN1C(=O)Nc1cc(F)c(N2CCC(CN3CCN(c4ccc5c(c4)C(=O)N(C4CCC(=O)NC4=O)C5=O)CC3)CC2)cc1F` (stereo partly drawn) [Compound 2-17, (2R,5S)-4-(8-cyanoquinolin-5-yl)-N-(4-(4-((4-(2-(2,6-dioxopiperidin-3-yl)-1,3-dioxoisoindolin-5-yl)piperazin-1-yl)methyl)piperidin-1-yl)-2,5-difluorophenyl)-2,5-dimethylpiperazine-1-carboxamide] here?
**A.** > 100 nM

**Q.** For `C[C@@H]1CN(c2ccc(C#N)c3ncccc23)[C@@H](C)CN1C(=O)Nc1ccc(N2CCC(CN3CCN(c4cc5c(cc4F)C(=O)N(C4CCC(=O)NC4=O)C5=O)CC3)CC2)c(F)c1` (stereo partly drawn) [Compound 2-24, (2R,5S)-4-(8-cyanoquinolin-5-yl)-N-(4-(4-((4-(2-(2,6-dioxopiperidin-3-yl)-6-fluoro-1,3-dioxoisoindolin-5-yl)piperazin-1-yl)methyl)piperidin-1-yl)-3-fluorophenyl)-2,5-dimethylpiperazine-1-carboxamide], which DC50 is on record?
**A.** > 100 nM

**Q.** `CC(C)N(CC1CCN(c2ccc(NC(=O)N3C[C@H](C)N(c4ccc(C#N)c(Cl)c4)C[C@H]3C)cn2)CC1)C1CC(Oc2ccc3c(c2)C(=O)N(C2CCC(=O)NC2=O)C3=O)C1` (stereo partly drawn) [Compound 1-11, (2R,5S)-4-(3-chloro-4-cyanophenyl)-N-(6-(4-((((1r,3r)-3-((2-(2,6-dioxopiperidin-3-yl)-1,3-dioxoisoindolin-5-yl)oxy)cyclobutyl)(isopropyl)amino)methyl)piperidin-1-yl)pyridin-3-yl)-2,5-dimethylpiperazine-1-carboxamide] was tested. Which DC50 did it give?
**A.** ≤ 10 nM

**Q.** How did the DC50 turn out when `COc1cc(N2C[C@@H](C)N(C(=O)Nc3ccc(N4CCC(CN5CCN(c6cc7c(cc6F)C(=O)N([C@H]6CCC(=O)NC6=O)C7)CC5)CC4)c(F)c3)C[C@@H]2C)ccc1C#N` [Compound 1-55, (2R,5S)-4-(4-cyano-3-methoxyphenyl)-N-(4-(4-((4-(2-((S)-2,6-dioxopiperidin-3-yl)-6-fluoro-1-oxoisoindolin-5-yl)piperazin-1-yl)methyl)piperidin-1-yl)-3-fluorophenyl)-2,5-dimethylpiperazine-1-carboxamide] was run?
**A.** ≤ 10 nM

**Q.** Which DC50 does the source give for `COc1cc(N2C[C@@H](C)N(C(=O)Nc3ccc(N4CCC(CN5CCN(c6cc7c(cc6F)C(=O)N(C6CCC(=O)NC6=O)C7=O)CC5)CC4)nc3)C[C@@H]2C)ccc1C#N` (stereo partly drawn) [Compound 1-39, (2R,5S)-4-(4-cyano-3-methoxyphenyl)-N-(6-(4-((4-(2-(2,6-dioxopiperidin-3-yl)-6-fluoro-1,3-dioxoisoindolin-5-yl)piperazin-1-yl)methyl)piperidin-1-yl)pyridin-3-yl)-2,5-dimethylpiperazine-1-carboxamide] here?
**A.** ≤ 10 nM

**Q.** With `COc1cc(N2C[C@@H](C)N(C(=O)Nc3ccc(N4CCC(CN5CCN(c6ccc7c(c6)C(=O)N(C6CCC(=O)NC6=O)C7=O)CC5)CC4)cc3F)C[C@@H]2C)ccc1C#N` (stereo partly drawn) [Compound 1-25, (2R,5S)-4-(4-cyano-3-methoxyphenyl)-N-(4-(4-((4-(2-(2,6-dioxopiperidin-3-yl)-1,3-dioxoisoindolin-5-yl)piperazin-1-yl)methyl)piperidin-1-yl)-2-fluorophenyl)-2,5-dimethylpiperazine-1-carboxamide] as the compound, how does the DC50 read?
**A.** ≤ 10 nM

**Q.** `C[C@@H]1CN(c2ccc(C#N)c3ncccc23)[C@@H](C)CN1C(=O)Nc1ccc(N2CCC(CN3CCN(c4ccc5c(c4)C(=O)N(C4CCC(=O)NC4=O)C5=O)CC3)CC2)nc1` (stereo partly drawn) [Compound 2-9, (2R,5S)-4-(8-cyanoquinolin-5-yl)-N-(6-(4-((4-(2-(2,6-dioxopiperidin-3-yl)-1,3-dioxoisoindolin-5-yl)piperazin-1-yl)methyl)piperidin-1-yl)pyridin-3-yl)-2,5-dimethylpiperazine-1-carboxamide] was tested. Which DC50 did it give?
**A.** > 100 nM

**Q.** `C[C@@H]1CN(c2ccc(C#N)c(Cl)c2)[C@@H](C)CN1C(=O)Nc1ccc(OCCCCN(C)C2CC(Oc3ccc4c(c3)C(=O)N(C3CCC(=O)NC3=O)C4=O)C2)nc1` (stereo partly drawn) [Compound 1-8, (2R,5S)-4-(3-chloro-4-cyanophenyl)-N-(6-(4-(((1r,3r)-3-((2-(2,6-dioxopiperidin-3-yl)-1,3-dioxoisoindolin-5-yl)oxy)cyclobutyl)(methyl)amino)butoxy)pyridin-3-yl)-2,5-dimethylpiperazine-1-carboxamide] was tested. Which DC50 did it give?
**A.** ≤ 10 nM

**Q.** With `C[C@@H]1CN(c2ccc(C#N)c(C(F)(F)F)c2)[C@@H](C)CN1C(=O)Nc1ccc(N2CCC(CN3CCN(c4ccc5c(c4)C(=O)N(C4CCC(=O)NC4=O)C5=O)CC3)CC2)c(F)c1` (stereo partly drawn) [Compound 1-45, (2R,5S)-4-(4-cyano-3-(trifluoromethyl)phenyl)-N-(4-(4-((4-(2-(2,6-dioxopiperidin-3-yl)-1,3-dioxoisoindolin-5-yl)piperazin-1-yl)methyl)piperidin-1-yl)-3-fluorophenyl)-2,5-dimethylpiperazine-1-carboxamide] as the compound, how does the DC50 read?
**A.** ≤ 10 nM

**Q.** For `C[C@@H]1CN(c2ccc(C#N)c(Cl)c2)[C@@H](C)CN1C(=O)Nc1ccc(N2CCC(CN3CCN(c4ccc5c(c4)C(=O)N(C4CCC(=O)NC4=O)C5=O)CC3)CC2)cc1F` (stereo partly drawn) [Compound 1-23, (2R,5S)-4-(3-chloro-4-cyanophenyl)-N-(4-(4-((4-(2-(2,6-dioxopiperidin-3-yl)-1,3-dioxoisoindolin-5-yl)piperazin-1-yl)methyl)piperidin-1-yl)-2-fluorophenyl)-2,5-dimethylpiperazine-1-carboxamide], which DC50 is on record?
**A.** ≤ 10 nM
